For one assay, the system named is anti-CD3-activated PBMCs. Nature of the assay: Effects of TPC on cytokine secretion by anti-CD3-activated PBMCs (Luminex). It counts as cell-based. On the procedure:
FIGS. 1A-1B: Very low dose TPC has a strong immunomodulatory effect. Bar graphs showing the effects of TPC at a range of doses, on anti-CD3-activated PBMCs 48 h after treatment. Secretion of pro-inflammatory cytokine TNFα (1A) and anti-inflammatory cytokine IL-10 (1B) are shown. Column statistics, one-sample t test compared to a hypothetical value of 100 was used. *-P<0.05, **-P<0.01, ***-P<0.005
The immunomodulatory effect of TPC was determined in vitro on PBMCs from healthy donors. PBMCs were harvested and allowed to adhere to culture plates. TPC at various concentrations, or PBS or dexamethasone as controls were then added and an hour later anti-CD3 stimulating antibody was added to induce an inflammatory state. 48 hours later the supernatant was harvested from the cells and cytokine levels were assayed using standard Luminex protocols. Levels of cytokine induction was interpolated from standard curves, using 5-parameter non-linear regression analyses, where y=(A+((B−A)/(1+(((B−E)/(E−A))*((x/C)^D))))). The interpolated data was then normalized to vehicle controls (anti-CD3 stimulation alone). […] Once again, the effect was greatest at very low doses, as the 0.005 μg/ml TPC dose had the strongest effect causing a 33% increase in IL-10 levels. […] (FIG. 1B).

Assay [1] concerns THP-1 human monocyte cell line polarized to M1 macrophages. Nature of the assay: IL-10 secretion by THP-1-derived M1 macrophages. The settings on record: THP-1 M0 (100 ng/ml PMA 48 hours) polarized to M1 with 10 ng/ml LPS; TPC 400 ug/ml, dexamethasone 1 uM, IL-4 and IL-13 20 ng/ml; versus PBS control. It counts as cell-based. On the procedure: FIG. 2: TPC enhances the anti-inflammatory effect of steroids. A bar graph showing the effect of IL-4/IL-13, TPC, dexamethasone and dexamethasone+TPC on IL-10 secretion by macrophages. *-P<0.05, **-P<0.01
To test the hypothesis that a combination of steroids and TPC will have a beneficial effect on treating inflammation, cells of the THP-1 human monocyte cell line were differentiated to M0 macrophages with 100 ng/ml PMA for 48 hours and then polarized to M1 macrophages with 10 ng/ml LPS. These cells were then tested with the following compounds: PBS (negative control), IL-4 and IL-13 (20 ng/ml, positive control as they induce the cells to a M2 phenotype), TPC (400 ug/ml), dexamethasone (1 uM), and a combination of dexamethasone (1 uM) and TPC (400 ug/ml). […] Further, since TPC itself reduces pro-inflammatory cytokine secretion as well, it may be used, not just in combination, but to reduce the total dose of steroid administered.

The subject of another assay is lupus prone mice. The settings on record: subcutaneous (5 μg/mouse) and oral (50 μg/mouse and 250 μg/mouse) administration; cited from earlier work.
Assay [2] concerns mice with dextran sodium sulfate induced colitis. The settings on record: subcutaneous (5 μg/mouse) and oral (50 μg/mouse and 250 μg/mouse) administration; cited from earlier work.
The test system of assay [3] is mice with collagen-induced arthritis. Conditions: subcutaneous (5 μg/mouse) and oral (50 μg/mouse and 250 μg/mouse) administration; cited from earlier work.
In assay [4] the test system is experimental mouse models of autoimmune diseases. The settings on record: in the three mouse models; cited from earlier work.
[5] abbreviates: 0.005 μg/ml TPC, PBMCs from healthy donors, anti-CD3 stimulation, supernatant at 48 hours, normalized to vehicle control (anti-CD3 alone).

As to Tuftsin-PhosphorylCholine [TPC], in the assay with anti-CD3-activated PBMCs (setting [5]), the “increase in IL-10 levels” value was determined as 33% and the “lowering of TNFα levels” value stood at 41%. Moreover, in the assay on anti-CD3-activated PBMCs (anti-CD3-activated PBMCs, 48 hours, TPC relative to dexamethasone), the “increase on IL-10 secretion as compared to dexamethasone” value came to 220%. In addition, the IL-10 expression entry in assay [1] is on record as “strong increase”. Also, the glomerulonephritis onset result with lupus prone mice was “prevented”. The colitis entry in assay [2] is on record as “reduced”. Further, in assay [3], the joint damage result is listed as “prevented”. Also, in assay [4], the “T and B regulatory cells” value is given as “enhanced expansion”; the “anti-inflammatory IL-10” value is on record as “increased”; the “proinflammatory cytokine expression such as IL-6, IL-17, TNFα, IFNγ” value is reported as “inhibited”.

The record behind these values is patent US20250375529A1, “PHOSPHORYLCHOLINE-TUFTSIN CONJUGATE FOR TREATING OCULAR INFLAMMATION” (TARSIER PHARMA LTD., priority 2017, published 2025).
